From PubChem BioAssay AID280 (DTP/NCI, 2004) come the findings set out here.

For this experiment, the system named is nude mice, LOX melanoma ip, survival T/C. Kind of experiment: NCI In Vivo Anticancer Drug Screen. Data for tumor model Human Amelanotic Melanoma (LOX) (intraperitoneal) in NU/NU BALB/C (nude) mice. The note with it: endpoint: median survival time, higher = longer survival. On the procedure: The antitumor activity of compounds was measured in mice bearing transplantable tumors. Survival or tumor size were measured and the results are expressed as the measurement made in the treated group (T) divided by the measurement made in the vehicle treated control group (C). The tumor model used in this assay is Human Amelanotic Melanoma (LOX) (intraperitoneal) in NU/NU BALB/C (nude) mice

[1] abbreviates: dose: 50.0 mg/kg/injection, schedule: Q04DX003 (ip), vehicle: saline with Tween-80.
Setting [2] is: dose: 100.0 mg/kg/injection, schedule: Q04DX003 (ip), vehicle: saline with Tween-80.
Setting [3] is: dose: 200.0 mg/kg/injection, schedule: Q04DX003 (ip), vehicle: saline with Tween-80.

Where “and” joins values, the source holds several entries; their conditions need not be identical. Equal entries are not always repeated. Toxic doses and inconclusive results are not listed.

Take `CCCn1c(SC)nc(COC(=O)NC)c1COC(=O)NC`: the T/C is 104 % of control (dose: 30.0 mg/kg/injection, schedule: Q04DX003 (ip), vehicle: saline); 123 % of control (dose: 60.0 mg/kg/injection, schedule: Q04DX003 (ip), vehicle: saline); 98 % of control (dose: 106.8 mg/kg/injection, schedule: Q04DX003 (ip), vehicle: water); 119 % of control (dose: 120.0 mg/kg/injection, schedule: Q04DX003 (ip), vehicle: saline); 103 % of control (dose: 160.1 mg/kg/injection, schedule: Q04DX003 (ip), vehicle: water); 191 % of control (dose: 240.0 mg/kg/injection, schedule: Q04DX003 (ip), vehicle: saline). For the same compound, the T/C reads like this: (dose: 240.0 mg/kg/injection, schedule: Q04DX003 (ip), vehicle: water) 122 % of control; (dose: 359.8 mg/kg/injection, schedule: Q04DX003 (ip), vehicle: water) 189 % of control; (dose: 480.0 mg/kg/injection, schedule: Q04DX003 (ip), vehicle: saline) 170 % of control.
On to `CCS/C(SC)=C(/c1ccccc1)[P+](c1ccccc1)(c1ccccc1)c1ccccc1`, for which the T/C reads like this: (dose: 0.81 mg/kg/injection, schedule: Q04DX003 (ip), vehicle: Klucel (hydroxypropylcellulose) (HPC)) 106 % of control; (dose: 1.35 mg/kg/injection, schedule: Q04DX003 (ip), vehicle: Klucel (hydroxypropylcellulose) (HPC)) 106 % of control; (dose: 2.25 mg/kg/injection, schedule: Q04DX003 (ip), vehicle: Klucel (hydroxypropylcellulose) (HPC)) 118 % of control; (dose: 3.12 mg/kg/injection, schedule: Q04DX003 (ip), vehicle: Klucel (hydroxypropylcellulose) (HPC)) 95 % of control; (dose: 3.76 mg/kg/injection, schedule: Q04DX003 (ip), vehicle: Klucel (hydroxypropylcellulose) (HPC)) 100 % of control; (dose: 6.25 mg/kg/injection, schedule: Q04DX003 (ip), vehicle: Klucel (hydroxypropylcellulose) (HPC)) 94 % of control.
For `CN(C)CCCN=c1c2ccccc2n(C)c2[nH]c(=O)n(C)c(=O)c12`, the T/C runs as follows: (dose: 12.5 mg/kg/injection, schedule: Q04DX003 (ip), vehicle: saline) 112 % of control; (dose: 50.0 mg/kg/injection, schedule: Q04DX003 (ip), vehicle: saline) 107 % of control.
As to `C=C(C)/C([O-])=N/[N+](C)(C)CC(O)CCCCCCCCCCCC` (configuration not stated), the T/C is, setting by setting: (dose: 2.5 mg/kg/injection, schedule: Q04DX003 (ip), vehicle: Klucel (hydroxypropylcellulose) (HPC)) 88 % of control; (dose: 5.0 mg/kg/injection, schedule: Q04DX003 (ip), vehicle: Klucel (hydroxypropylcellulose) (HPC)) 91 % of control; (dose: 10.0 mg/kg/injection, schedule: Q04DX003 (ip), vehicle: Klucel (hydroxypropylcellulose) (HPC)) 91 % of control and 98 % of control; (dose: 20.0 mg/kg/injection, schedule: Q04DX003 (ip), vehicle: Klucel (hydroxypropylcellulose) (HPC)) 101 % of control; (dose: 40.0 mg/kg/injection, schedule: Q04DX003 (ip), vehicle: Klucel (hydroxypropylcellulose) (HPC)) 102 % of control and 105 % of control; (dose: 80.0 mg/kg/injection, schedule: Q04DX003 (ip), vehicle: Klucel (hydroxypropylcellulose) (HPC)) 105 % of control. In addition, under “dose: 160.0 mg/kg/injection, schedule: Q04DX003 (ip), vehicle: Klucel (hydroxypropylcellulose) (HPC)”, the T/C was 87 % of control.
For `NC(CCC(=O)NC(CS)C(=O)NCC(=O)O)C(=O)O` (configuration not stated), the T/C reads like this: (dose: 75.0 mg/kg/injection, schedule: Q04DX003 (ip), vehicle: saline) 100 % of control; (dose: 150.0 mg/kg/injection, schedule: Q04DX003 (ip), vehicle: saline) 100 % of control; (dose: 259.0 mg/kg/injection, schedule: Q04DX003 (ip), vehicle: saline) 108 % of control; (dose: 300.0 mg/kg/injection, schedule: Q04DX003 (ip), vehicle: saline) 107 % of control; (dose: 432.0 mg/kg/injection, schedule: Q04DX003 (ip), vehicle: saline) 108 % of control; (dose: 600.0 mg/kg/injection, schedule: Q04DX003 (ip), vehicle: saline) 104 % of control. In addition, the T/C is, setting by setting: (dose: 720.0 mg/kg/injection, schedule: Q04DX003 (ip), vehicle: saline) 93 % of control; (dose: 1200.0 mg/kg/injection, schedule: Q04DX003 (ip), vehicle: saline) 95 % of control.
Consider `COc1cc(C(C)c2cc3c(cc2OCCO)OCO3)cc(OC)c1OC` (configuration not stated), for which the T/C (dose: 75.0 mg/kg/injection, schedule: Q04DX003 (ip), vehicle: saline with Tween-80) is 114 % of control; the T/C (dose: 150.0 mg/kg/injection, schedule: Q04DX003 (ip), vehicle: saline with Tween-80) is 94 % of control; the T/C (dose: 600.0 mg/kg/injection, schedule: Q04DX003 (ip), vehicle: saline with Tween-80) was 152 % of control.
Take `COc1ccc(/C=C/C(=O)c2ccccc(=O)c2O)c(OC)c1OC`: the T/C reads like this: (dose: 6.85 mg/kg/injection, schedule: Q04DX003 (ip), vehicle: Klucel (hydroxypropylcellulose) (HPC)) 100 % of control; (dose: 13.7 mg/kg/injection, schedule: Q04DX003 (ip), vehicle: Klucel (hydroxypropylcellulose) (HPC)) 100 % of control; (dose: 27.5 mg/kg/injection, schedule: Q04DX003 (ip), vehicle: Klucel (hydroxypropylcellulose) (HPC)) 110 % of control; (dose: 55.0 mg/kg/injection, schedule: Q04DX003 (ip), vehicle: Klucel (hydroxypropylcellulose) (HPC)) 104 % of control; (dose: 110.0 mg/kg/injection, schedule: Q04DX003 (ip), vehicle: Klucel (hydroxypropylcellulose) (HPC)) 110 % of control.
Turning to `NC(Cc1ccccc1)C(=O)OCN1C(=O)C2C3C=CC(C2C1=O)C1C2C(=O)N(COC(=O)C(N)Cc4ccccc4)C(=O)C2C31` (configuration not stated), the T/C (dose: 25.0 mg/kg/injection, schedule: Q04DX003 (ip), vehicle: water) is 105 % of control; the T/C (dose: 50.0 mg/kg/injection, schedule: Q04DX003 (ip), vehicle: water) is 109 % of control; the T/C (dose: 100.0 mg/kg/injection, schedule: Q04DX003 (ip), vehicle: water) is 107 % of control; the T/C (dose: 200.0 mg/kg/injection, schedule: Q04DX003 (ip), vehicle: water) is 116 % of control.
Consider `C/C(=N\NC(=S)N1CC2CCC(CC2)C1)c1cccc(C)n1`, for which the T/C was 105 % of control (dose: 6.25 mg/kg/injection, schedule: Q04DX003 (ip), vehicle: saline with Tween-80); 109 % of control (dose: 12.5 mg/kg/injection, schedule: Q04DX003 (ip), vehicle: saline with Tween-80); 103 % of control (dose: 25.0 mg/kg/injection, schedule: Q04DX003 (ip), vehicle: saline with Tween-80); 120 % of control under setting [1]; 109 % of control under setting [2].
As for `COc1ccc2oc3c(ccc[n+]3C)c(=O)c2c1`, the T/C is 108 % of control under setting [1]; 107 % of control under setting [2]; 102 % of control under setting [3]; 101 % of control (dose: 400.0 mg/kg/injection, schedule: Q04DX003 (ip), vehicle: saline with Tween-80).
On to `CC[C@@]1(O)C[C@H](OC2CC(N(C)C)C(OC3CC4OC5CC(=O)C(C)OC5OC4C(C)O3)C(C)O2)c2c(O)c3c(c(O)c2[C@H]1OC1CC(N(C)C)C(O)C(C)O1)C(=O)c1cccc(O)c1C3=O` (some centres not stated), for which the T/C was 115 % of control (dose: 63.0 micrograms/kg/injection, schedule: Q04DX003 (ip), vehicle: saline); 111 % of control (dose: 125.0 micrograms/kg/injection, schedule: Q04DX003 (ip), vehicle: saline); 108 % of control and 94 % of control (dose: 250.0 micrograms/kg/injection, schedule: Q04DX003 (ip), vehicle: saline).
With `Nc1ccn([C@@H]2C=C(CO)[C@@H](O)[C@H]2O)c(=O)n1`, for the setting “dose: 1.0 mg/kg/injection, schedule: Q01DX009 (ip), vehicle: saline”, the T/C is 219 % of control.
Take `CC1OC2CC(O)C1(O)C1=C2C(O)=C(C(N)=O)C(=N)C1=O` (configuration not stated): the T/C is, setting by setting: (dose: 0.32 mg/kg/injection, schedule: Q04DX003 (ip), vehicle: saline + Tween-80 + alcohol) 106 % of control; (dose: 0.63 mg/kg/injection, schedule: Q04DX003 (ip), vehicle: saline + Tween-80 + alcohol) 99 % of control; (dose: 1.25 mg/kg/injection, schedule: Q04DX003 (ip), vehicle: saline + Tween-80 + alcohol) 106 % of control; (dose: 2.5 mg/kg/injection, schedule: Q04DX003 (ip), vehicle: saline + Tween-80 + alcohol) 102 % of control; (dose: 5.0 mg/kg/injection, schedule: Q04DX003 (ip), vehicle: saline + Tween-80 + alcohol) 102 % of control.
Consider `COc1ccc(O)cc1`, for which the T/C by setting is: under setting [2], 124 % of control; under setting [3], 102 % of control.
On to `CCC1OC(OC)C=CC1=O` (configuration not stated), for which the T/C by setting is: (dose: 25.0 mg/kg/injection, schedule: Q04DX003 (ip), vehicle: suspension in saline) 96 % of control; (dose: 50.0 mg/kg/injection, schedule: Q04DX003 (ip), vehicle: suspension in saline) 104 % of control; (dose: 100.0 mg/kg/injection, schedule: Q04DX003 (ip), vehicle: suspension in saline) 113 % of control.
